Data on 26 molecules can be found in ChEMBL document CHEMBL1129273, “Structural modifications of thalidomide produce analogs with enhanced tumor necrosis factor inhibitory activity” (J Med Chem, 1996).

For test [1], the target named is T1, Tumor necrosis factor (Homo sapiens, UniProt P01375). Put plainly: Inhibition of TNF-alpha production in LPS stimulated human PBMCs. Type of test: functional.
In test [2] the target is T1, Tumor necrosis factor. Put plainly: Inhibitory activity of TNF-alpha was measured in the supernatant of human PBMCs stimulated with LPS. It counts as functional.

T1 sequence (P01375 whole entry): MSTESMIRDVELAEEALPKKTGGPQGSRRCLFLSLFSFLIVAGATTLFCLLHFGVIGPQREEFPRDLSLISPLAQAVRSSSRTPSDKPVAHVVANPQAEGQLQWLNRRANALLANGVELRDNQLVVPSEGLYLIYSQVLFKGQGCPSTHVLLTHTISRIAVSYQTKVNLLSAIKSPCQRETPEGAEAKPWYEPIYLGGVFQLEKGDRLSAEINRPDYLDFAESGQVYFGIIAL

By IC50 is commonly meant the concentration that gives 50% inhibition. A low value points to greater potency in that assay. For the molecule `NC(=O)CC(c1ccc(Cl)c(Cl)c1)N1C(=O)c2ccccc2C1=O` (stereo unspecified), on Tumor necrosis factor [1], the midpoint of inhibition, the IC50, lay at 70 µM.

Take `CCNC(=O)CC(c1ccc(OC)c(OC)c1)N1C(=O)c2ccccc2C1=O` (stereo unspecified): at Tumor necrosis factor [1], inhibition was half-maximal at 53 µM (IC50).

`COC(=O)CC(c1ccc(OC)c(OC)c1)N1C(=O)c2cc3ccccc3cc2C1=O` (stereo unspecified) showed an IC50 at Tumor necrosis factor [1] of 4.7 µM.

In turn, `COC(=O)CC(c1ccc(OC)c(OC)c1)N1C(=O)c2ccc([N+](=O)[O-])cc2C1=O` (stereo unspecified) showed an IC50 against Tumor necrosis factor [2] of 34 µM.

Molecule `COc1ccc(C(CCO)N2C(=O)c3ccccc3C2=O)cc1OC` (stereo unspecified) returned an IC50 against Tumor necrosis factor [1] of 7.5 µM.

Take `COc1ccc(C(CC(N)=O)N2C(=O)c3ccccc3C2=O)cc1OC` (stereo unspecified): at Tumor necrosis factor [1], it took 12 µM to reach half-maximal inhibition (IC50).

For the molecule `CCOc1ccc(C(CC(N)=O)N2C(=O)c3ccccc3C2=O)cc1OCC` (stereo unspecified), the IC50 on Tumor necrosis factor [1] worked out at 5.6 µM.

Molecule `CNC(=O)CC(c1ccc(OC)c(OC)c1)N1C(=O)c2ccccc2C1=O` (stereo unspecified) yielded an IC50 against Tumor necrosis factor [1] of 12 µM.

On Tumor necrosis factor [1], `COc1ccc(C(CC(N)=O)N2C(=O)c3ccccc3C2=O)cc1` (stereo unspecified) came in with an IC50 of 62 µM.

`COc1cccc(C(CC(N)=O)N2C(=O)c3ccccc3C2=O)c1` (stereo unspecified) came in with a 50% inhibitory concentration (IC50) against Tumor necrosis factor [1] of 120 µM.

The molecule `COC(=O)CC(c1ccc(OC)c(OC)c1)N1C(=O)c2ccc(N)cc2C1=O` (stereo unspecified) yielded a 50% inhibitory concentration (IC50) at Tumor necrosis factor [1] of 0.38 µM.

Regarding `COc1ccc(C(CC(=O)O)N2C(=O)c3ccccc3C2=O)cc1OC` (stereo unspecified), the half-inhibitory concentration (IC50) against Tumor necrosis factor [1] came to 60 µM.

Take `NC(=O)CC(c1ccccc1)N1C(=O)c2ccccc2C1=O` (stereo unspecified): the IC50 against Tumor necrosis factor [1] amounted to 260 µM.

Molecule `COC(=O)CC(c1ccc(OC)c(OC)c1)N1C(=O)c2cccc([N+](=O)[O-])c2C1=O` (stereo unspecified) displayed an IC50 against Tumor necrosis factor [2] of 64 µM.

Molecule `COC(=O)CC(c1ccc(OC)c(OC)c1)N1C(=O)c2ccc(C(C)(C)C)cc2C1=O` (stereo unspecified) gave a concentration for half-maximal inhibition (IC50) on Tumor necrosis factor [1] of 4.2 µM.

As for `COC(=O)CC(c1ccc(OC)c(OC)c1)N1C(=O)c2cccc(O)c2C1=O` (stereo unspecified), the IC50 against Tumor necrosis factor [1] worked out at 15 µM.

Consider `COC(=O)CC(c1ccc(OC)c(OC)c1)N1C(=O)c2c(Cl)ccc(Cl)c2C1=O` (stereo unspecified), for which half-maximal inhibition against Tumor necrosis factor [2] (IC50) required 7.9 µM.

For the molecule `COC(=O)CC(c1ccc(OC)c(OC)c1)N1C(=O)c2ccccc2C1=O` (stereo unspecified), the IC50 on Tumor necrosis factor [1] worked out at 2.9 µM.

Regarding `COC(=O)CC(c1ccc(OC)c(OC)c1)N1C(=O)c2cccc(N)c2C1=O` (stereo unspecified), half-maximal inhibition on Tumor necrosis factor [1] (IC50) was put at 0.45 µM.

`COc1ccc(C(CC(=O)NCc2ccccc2)N2C(=O)c3ccccc3C2=O)cc1OC` (stereo unspecified) came in with a half-inhibitory concentration (IC50) at Tumor necrosis factor [1] of 84 µM.

`COC(=O)CC(c1ccc(OC)c(OC)c1)N1C(=O)c2cc(Cl)c(Cl)cc2C1=O` (stereo unspecified) yielded a concentration for half-maximal inhibition (IC50) at Tumor necrosis factor [2] of 13 µM.

As to `N#Cc1cccc(C(CC(N)=O)N2C(=O)c3ccccc3C2=O)c1` (stereo unspecified), the 50% inhibitory concentration (IC50) against Tumor necrosis factor [1] was found to be 89 µM.

`NC(=O)CC(c1ccc2ccccc2c1)N1C(=O)c2ccccc2C1=O` (stereo unspecified) had an IC50 against Tumor necrosis factor [1] of 51 µM.

In the case of `CCCOc1ccc(C(CC(N)=O)N2C(=O)c3ccccc3C2=O)cc1OCCC` (stereo unspecified), at Tumor necrosis factor [1], the IC50 stood at 55 µM.

The molecule `COc1cc(OC)cc(C(CC(N)=O)N2C(=O)c3ccccc3C2=O)c1` (stereo unspecified) yielded an IC50 against Tumor necrosis factor [1] of 39 µM.

As for `N#Cc1ccc(C(CC(N)=O)N2C(=O)c3ccccc3C2=O)cc1` (stereo unspecified), 150 µM corresponded to half-maximal inhibition against Tumor necrosis factor [1] (IC50).
